The compounds below were run against T1, DCAF1 (1058-1396) (Homo sapiens, UniProt Q9Y4B6) (assay: Surface plasmon resonance (SPR) binding assay, compound binding to DCAF1). Conditions: immobilized DCAF1 (1058-1396), steady state affinity model, 25° C.
T1 construct: a fragment of a DCAF1 protein that includes amino acid residues A1058 to E1396; His6 (N, cleaved yes); made in house; host or cells: Sf9 insect cells (Bac-to-Bac baculovirus, pFastBacHT vector)
T1 sequence (Q9Y4B6 1058-1396): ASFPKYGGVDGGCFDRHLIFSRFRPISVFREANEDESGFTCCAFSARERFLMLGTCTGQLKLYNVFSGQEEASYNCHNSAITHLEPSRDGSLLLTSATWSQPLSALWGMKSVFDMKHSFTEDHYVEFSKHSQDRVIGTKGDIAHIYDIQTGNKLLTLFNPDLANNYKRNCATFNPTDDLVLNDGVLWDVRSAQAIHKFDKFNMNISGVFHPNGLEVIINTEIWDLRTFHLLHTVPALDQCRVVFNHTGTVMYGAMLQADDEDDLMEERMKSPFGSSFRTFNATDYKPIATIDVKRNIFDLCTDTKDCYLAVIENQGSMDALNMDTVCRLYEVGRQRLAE
Description: Binding affinities of specific exemplary compounds to DCAF1 (1058-1396), which is a fragment of a DCAF1 protein that includes amino acid residues A1058 to E1396 were determined by a surface plasmon resonance (SPR) assay. Briefly, purified DCAF1 (1058-1396) proteins were immobilized at a density of 9,000-11,000 resonance units (RUs) on a CMS sensor chip. Sensorgrams were recorded at different concentrations of compounds in multi-cycle kinetic format. Data were analyzed using a steady state affinity model through Biacore Evaluation Software to provide equivalent dissociation constants (Kd).
Binding affinities of compounds to DCAF1 were determined by a surface plasmon resonance (SPR) assay. Purified DCAF1 (1058-1396) proteins were immobilized on a CMS sensor chip, and a dose range of compound solutions were injected in multi-cycle kinetic format. Data were analyzed using a steady state model to provide equivalent dissociation constants (Kd).
Protein Expression and Purification: Human DCAF1 (1058-1396) (UniPro: Q9Y4B6) coding sequences were cloned into pFastBacHT vector and were expressed in Sf9 cells using Bac-to-Bac baculovirus expression system (Thermo Fisher Scientific). The expression construct for DCAF1 (1058-1396) included a N-terminal His6-tag to facilitate the purification. DCAF1 (1058-1396) proteins were obtained from supernatants of cell lysates and purified through sequential application of Ni affinity chromatography (Ni-NTA column, Bio-Rad), Tag removal using TEV protease, and size-exclusion chromatography (Superdex 200 column, GE Healthcare).
Surface plasmon resonance (SPR) binding assays: SPR studies were performed on a Biacore X100 plus or T200 instrument (GE Healthcare). Immobilization of purified DCAF1 (1058-1396) was carried out at 25° C. using a CMS sensor chip. The surface was pre-equilibrated in HBS-EP running buffer (10 mM HEPES, pH 7.4, 150 mM NaCl, 3 mM EDTA, 0.05% P20), before being activated with EDC/NHS. DCAF1 (1058-1396) was immobilized through amino groups to a density of 9,000-12,000 resonance units (RUs) on flow cell channel 2 (FC2), whereas flow cell channel 1 (FC1) was used as reference. Both DCAF1 immobilized and reference surfaces were deactivated with 1 M ethanolamine.
Interaction experiments were performed at 25° C. The compounds were prepared and serially diluted in HBS-EP running buffer containing final 2% DMSO (6-point two-fold serial dilution, 100 μM -3.125 μM final concentration of compounds). Compound Solutions were injected individually in multi-cycle kinetic format without regeneration (flow rate 30 μL/min, association time 60 s, dissociation time 60 s). Sensorgrams from reference surfaces and blank injections were subtracted from the raw data (double-referenced) and the data was solvent-corrected prior to analysis. Data were analyzed using a steady state affinity model through Biacore Evaluation Software to provide equivalent dissociation constants (Kd).
With `Cc1ccc2c(c1)C1CN(C)CCC1N2C(=O)c1cc2c(C)nn(-c3ccc(Cl)cc3)c2s1` (centres unmarked) [CPD-074, (1-(4-chlorophenyl)-3-methyl-1H-thieno[2,3-c]pyrazol-5-yl)(2,8-dimethyl-1,2,3,4,4a,9b-hexahydro-5H-pyrido[4,3-b]indol-5-yl)methanone] the Kd was greater than 100 µM. `Cc1ccc2c(c1)C1CN(C)CCC1N2C(=O)/C=C/c1cccc(C(F)(F)F)c1` (centres unmarked) [CPD-075, (E)-1-(2,8-dimethyl-1,2,3,4,4a,9b-hexahydro-5H-pyrido [4,3-b]indol-5-yl)-3-(3-(trifluoromethyl)phenyl)prop-2-en-1-one] showed a Kd greater than 100 µM. Work on `COC(=O)c1scc(C)c1S(=O)(=O)N1c2ccc(C)cc2C2CN(C)CCC21` (centres unmarked) [CPD-076, methyl 3-((2,8-dimethyl-1,2,3,4,4a,9b-hexahydro-5H-pyrido[4,3-b]indol-5-yl)sulfonyl)-4-methylthiophene-2-carboxylate] yielded a Kd of 40 to 70 µM. `Cc1ccc2c(c1)C1CN(C)CCC1N2S(=O)(=O)c1ccc(C(=O)C(C)C)cc1` (centres unmarked) [CPD-077, 1-(4-((2,8-dimethyl-1,2,3,4,4a,9b-hexahydro-5H-pyrido[4,3-b]indol-5-yl)sulfonyl)phenyl)-2-methylpropan-1-one] was tested, and the Kd was greater than 100 µM. For `Cc1ccc2c(c1)C1CN(C)CCC1N2S(=O)(=O)c1c([N+](=O)[O-])ccc(C)c1C` (centres unmarked) [CPD-078, 5-((2,3-dimethyl-6-nitrophenyl)sulfonyl)-2,8-dimethyl-2,3,4,4a,5,9b-hexahydro-1H-pyrido[4,3-b]indole], the Kd was greater than 100 µM. `Cc1ccc(C(=O)N[C@H](C(=O)N2c3ccc(C)cc3C3CN(C)CCC32)C(C)C)cc1` (stereo partly drawn) [CPD-079, N-((2S)-1-(2,8-dimethyl-1,2,3,4,4a,9b-hexahydro-5H-pyrido [4,3-b]indol-5-yl)-3-methyl-1-oxobutan-2-yl)-4-methylbenzamide] was tested, and the Kd was greater than 100 µM. For `Cc1ccc2c(c1)C1CN(C)CCC1N2C(=O)C[C@@H](n1cccn1)C(F)(F)F` (stereo partly drawn) [CPD-080, (R)-1-(2,8-dimethyl-1,2,3,4,4a,9b-hexahydro-5H-pyrido [4,3-b]indol-5-yl)-4,4,4-trifluoro-3-(1H-pyrazol-1-yl)butan-1-one], the Kd was greater than 100 µM. With `Cc1ccc2c(c1)C1CN(C)CCC1N2C(=O)/C=C/c1nccs1` (centres unmarked) [CPD-081, (E)-1-(2,8-dimethyl-1,2,3,4,4a,9b-hexahydro-5H-pyrido [4,3-b]indol-5-yl)-3-(thiazol-2-yl)prop-2-en-1-one] the Kd was greater than 100 µM. For `Cc1ccc2c(c1)C1CN(C)CCC1N2C(=O)CCc1cccs1` (centres unmarked) [CPD-082, 1-(2,8-dimethyl-1,2,3,4,4a,9b-hexahydro-5H-pyrido[4,3-b]indol-5-yl)-3-(thiophen-2-yl)propan-1-one], the Kd was greater than 100 µM. With `Cc1ccc2c(c1)C1CN(C)CCC1N2C(=O)/C=C/c1ccccc1` (centres unmarked) [CPD-083, (E)-1-(2,8-dimethyl-1,2,3,4,4a,9b-hexahydro-5H-pyrido [4,3-b]indol-5-yl)-3-phenylprop-2-en-1-one] the Kd was greater than 100 µM. Work on `Cc1ccc2c(c1)C1CN(C)CCC1N2C(=O)/C=C/c1ccc(F)cc1` (centres unmarked) [CPD-084, (E)-1-(2,8-dimethyl-1,2,3,4,4a,9b-hexahydro-5H-pyrido [4,3-b]indol-5-yl)-3-(4-fluorophenyl)prop-2-en-1-one] yielded a Kd of 40 to 70 µM. In the case of `COc1ccc(/C=C/C(=O)N2c3ccc(C)cc3C3CN(C)CCC32)cc1` (centres unmarked) [CPD-085, (E)-1-(2,8-dimethyl-1,2,3,4,4a,9b-hexahydro-5H-pyrido [4,3-b]indol-5-yl)-3-(4-methoxyphenyl)prop-2-en-1-one], the Kd is reported as greater than 100 µM. For `Cc1ccc2c(c1)C1CN(C)CCC1N2C(=O)/C=C/c1ccc2c(c1)OCO2` (centres unmarked) [CPD-086, (E)-3-(benzo[d][1,3]dioxol-5-yl)-1-(2,8-dimethyl-1,2,3,4,4a,9b-hexahydro-5H-pyrido[4,3-b]indol-5-yl) prop-2-en-1-one], the Kd was greater than 100 µM. Work on `Cc1ccc2c(c1)C1CN(C)CCC1N2C(=O)/C=C/c1ccc(S(=O)(=O)N2CCOCC2)cc1` (centres unmarked) [CPD-087, (E)-1-(2,8-dimethyl-1,2,3,4,4a,9b-hexahydro-5H-pyrido [4,3-b]indol-5-yl)-3-(4-(morpholinosulfonyl)phenyl)prop-2-en-1-one] yielded a Kd of 40 to 70 µM. `Cc1ccc2c(c1)C1CN(C)CCC1N2C(=O)/C(=C/c1ccc(Cl)cc1)c1ccc(F)cc1` (centres unmarked) [CPD-088, (E)-3-(4-chlorophenyl)-1-(2,8-dimethyl-1,2,3,4,4a,9b-hexahydro-5H-pyrido[4,3-b]indol-5-yl)-2-(4-fluorophenyl)prop-2-en-1-one] was tested, and the Kd was 40 to 70 µM. `CN(C)C(=O)c1ccc(NCC2Cc3ccccc3CN2C)nc1` (centres unmarked) [CPD-089, N,N-dimethyl-6-(((2-methyl-1,2,3,4-tetrahydroisoquinolin-3-yl)methyl)amino)nicotinamide] gave a Kd of 70 to 100 µM. `CN1Cc2ccccc2CC1CNc1nccc(-c2ccncc2)n1` (centres unmarked) [CPD-090, N-((2-methyl-1,2,3,4-tetrahydroisoquinolin-3-yl)methyl)-4-(pyridin-4-yl)pyrimidin-2-amine] gave a Kd of 40 to 70 µM. `CCn1ccnc1CN(C)CC1Cc2ccccc2CN1C` (centres unmarked) [CPD-091, 1-(1-ethyl-1H-imidazol-2-yl)-N-methyl-N-((2-methyl-1,2,3,4-tetrahydroisoquinolin-3-yl)methyl)methanamine] gave a Kd of 70 to 100 µM. Work on `CN1Cc2ccccc2CC1CNC(=O)c1nc(=N)[nH]c2c1CCCC2` (centres unmarked) [CPD-092, 2-imino-N-((2-methyl-1,2,3,4-tetrahydroisoquinolin-3-yl)methyl)-1,2,5,6,7,8-hexahydroquinazoline-4-carboxamide] yielded a Kd of 40 to 70 µM. `Cc1cc(N)n(CC(=O)N(C)CC2Cc3ccccc3CN2C)n1` (centres unmarked) [CPD-093, 2-(5-amino-3-methyl-1H-pyrazol-1-yl)-N-methyl-N-((2-methyl-1,2,3,4-tetrahydroisoquinolin-3-yl)methyl)acetamide] was tested, and the Kd was 40 to 70 µM. For `Cc1nc(N)nc(C)c1CC(=O)NCC1Cc2ccccc2CN1C` (centres unmarked) [CPD-094, 2-(2-amino-4,6-dimethylpyrimidin-5-yl)-N-((2-methyl-1,2,3,4-tetrahydroisoquinolin-3-yl)methyl)acetamide], the Kd was 40 to 70 µM. `CN(CC1Cc2ccccc2CN1C)C(=O)Cn1cnc2ccccc21` (centres unmarked) [CPD-095, 2-(1H-benzo[d]imidazol-1-yl)-N-methyl-N-((2-methyl-1,2,3,4-tetrahydroisoquinolin-3-yl)methyl)acetamide] gave a Kd of 40 to 70 µM. `CN1Cc2ccccc2CC1CNC(=O)Nc1ccc2c(c1)nnn2C` (centres unmarked) [CPD-096, 1-((2-methyl-1,2,3,4-tetrahydroisoquinolin-3-yl)methyl)-3-(1-methyl-1H-benzo [d][1,2,3]triazol-5-yl)urea] gave a Kd greater than 100 µM. For `CN(CC1Cc2ccccc2CN1C)C(=O)/C=C/c1cc(CO)cs1` (centres unmarked) [CPD-097, (E)-3-(4-(hydroxymethyl)thiophen-2-yl)-N-methyl-N-((2-methyl-1,2,3,4-tetrahydroisoquinolin-3-yl)methyl)acrylamide], the Kd was greater than 100 µM. `O=C(NCCn1ncc2ccccc2c1=O)C1Cc2ccccc2CN1` (centres unmarked) [CPD-098, N-(2-(1-oxophthalazin-2(1H)-yl)ethyl)-1,2,3,4-tetrahydroisoquinoline-3-carboxamide] showed a Kd of 40 to 70 µM. For `Cn1cccc1CNCC1CC(c2nncn2C)CC1O` (centres unmarked) [CPD-099, 2-((((1-methyl-1H-pyrrol-2-yl)methyl)amino)methyl)-4-(4-methyl-4H-1,2,4-triazol-3-yl)cyclopentan-1-ol], the Kd was 40 to 70 µM. `CCCCNCc1cccn1-c1ccccc1` [CPD-100, N-((1-phenyl-1H-pyrrol-2-yl)methyl)butan-1-amine] was tested, and the Kd was 70 to 100 µM. For `OCCCNCc1cccn1-c1ccccc1` [CPD-101, 3-(((1-phenyl-1H-pyrrol-2-yl)methyl)amino)propan-1-ol], the Kd was greater than 100 µM. In the case of `Oc1ccc(F)c(CNCc2cnc[nH]2)c1` [CPD-102, 3-((((1H-imidazol-5-yl)methyl)amino)methyl)-4-fluorophenol], the Kd is reported as greater than 100 µM. `OCCOc1cccc(CNCc2cnc[nH]2)c1` [CPD-103, 2-(3-((((1H-imidazol-5-yl)methyl)amino)methyl)phenoxy)ethan-1-ol] gave a Kd greater than 100 µM. `COc1ccc2cc(CNCc3cncn3CC(C)C)c(=O)[nH]c2c1` [CPD-104, 3-((((1-isobutyl-1H-imidazol-5-yl)methyl)amino)methyl)-7-methoxyquinolin-2(1H)-one] showed a Kd of 70 to 100 µM. `OCC1(CNCc2cnc[nH]2)CC1` [CPD-105, (1-((((1H-imidazol-5-yl)methyl)amino)methyl)cyclopropyl) methanol] showed a Kd of no more than 40 µM.
